The record followed here is patent US20060166989A1, “2-naphthamide derivatives” (Bayer Healthcare AG, priority 2002, published 2006).

T1 sequence (P43119 whole entry): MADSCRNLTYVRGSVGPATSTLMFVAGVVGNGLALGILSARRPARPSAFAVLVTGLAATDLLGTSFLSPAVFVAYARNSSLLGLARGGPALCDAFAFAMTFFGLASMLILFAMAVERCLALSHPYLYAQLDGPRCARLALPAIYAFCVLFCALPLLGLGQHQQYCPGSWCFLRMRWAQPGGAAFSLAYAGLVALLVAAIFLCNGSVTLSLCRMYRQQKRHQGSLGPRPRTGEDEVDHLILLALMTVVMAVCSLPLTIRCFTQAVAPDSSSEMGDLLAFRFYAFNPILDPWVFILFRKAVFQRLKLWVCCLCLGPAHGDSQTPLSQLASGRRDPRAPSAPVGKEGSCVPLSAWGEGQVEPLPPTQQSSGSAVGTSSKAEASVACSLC

The first data set concerns the target T1, IP receptor (Homo sapiens, UniProt P43119).
T1 construct: HEL cells were collected with centrifugation and washed with cAMP assay buffer; host or cells: HEL 92.1.7 human erythroleukemia cells
In words: Iloprost-induced cAMP production assay in HEL cells (Assay 2). It counts as cell-based. The conditions noted are these: read-out: Activity grade assay 2. On the procedure:
[Iloprost-Induced cAMP Production Assay in HEL Cells] (Assay 2)
HEL cells were collected with centrifugation and washed with cAMP assay buffer (CAB: Hank's balanced salt solution, 17 mM Hepes, 0.1% bovine serum albumin, 1 mM IBMX, 0.4% DMSO, and 1 mM L-ascorbic acid sodium salt (pH 7.4)). Cells were suspended at the density of 2.5×10^5 cells/ml in CAB, and twenty thousand cells in 80 μl aliquot of cell suspension were put in a well of 96 well plate (Falcon). Then, 10 μl of compound solution diluted with 1% DMSO in CAB or buffer alone was added. The plate was incubated at 37° C. for 30 min. Then, another 10 μl containing 100 nM iloprost in CAB or buffer alone was added and further incubated at 37° C. for 30 min. cAMP content in the well was measured by a cAMP ELISA kit (Applied Biosystems, USA).
Results of Iloprost-induced cAMP production assay (Assay2) are shown in Examples and tables of the Examples below. For practical reasons, the compounds are grouped in three classes of activity as follows: A(=or<)0.1μM<B(=or<)1μM<C
With `O=C(NC(Cc1ccccc1)C(=O)O)c1ccc2cc(OCc3ccc[n+]([O-])c3)ccc2c1` (centres unmarked) [Example 1-87], the IC50 is above 1 µM.

With `O=C(NC(Cc1ccccc1)C(=O)O)c1ccc2cc(OCc3ccc(Cl)cc3)ccc2c1` (centres unmarked) [Example 1-25], the IC50 was 0.1 to 1 µM.

For `O=C(NC(Cc1cccc(C(F)(F)F)c1)C(=O)O)c1ccc2cc(OCc3ccccc3)ccc2c1` (centres unmarked) [Example 1-14], the IC50 is below 0.1 µM.

On to `Cc1ccc(C)c(COc2ccc3cc(C(=O)NC(Cc4ccccc4)C(=O)O)ccc3c2)c1` (centres unmarked) [Example 1-40], for which the IC50 was in the range of 0.1 to 1 µM.

Take `O=C(NC(Cc1ccc(-c2ccccc2)cc1)C(=O)O)c1ccc2cc(OCc3ccccc3)ccc2c1` (centres unmarked) [Example 1-73]: the IC50 is 0.1 to 1 µM.

Turning to `O=C(N[C@@H](Cc1ccccc1)C(=O)O)c1ccc2cc(Oc3ccccc3)ccc2c1` [Example 3-1, N-(6-phenoxy-2-naphthoyl)phenylalanine], the IC50 was above 1 µM.

`O=C(NC(Cc1c[nH]c2ccc(O)cc12)C(=O)O)c1ccc2cc(OCc3ccccc3)ccc2c1` (centres unmarked) [Example 1-49]: the IC50 was below 0.1 µM.

Regarding `O=C(NC(Cc1ccccc1)C(=O)O)c1ccc2cc(OCCOc3ccccc3)ccc2c1` (centres unmarked) [Example 1-4], the IC50 is 0.1 to 1 µM.

In the case of `O=C(NC(Cc1ccccc1)C(=O)O)c1ccc2cc(OCc3ccccc3OC(F)(F)F)ccc2c1` (centres unmarked) [Example 1-37], the IC50 was above 1 µM.

Consider `O=C(NC(CO)C(=O)O)c1ccc2cc(OCc3ccccc3)ccc2c1` (centres unmarked) [Example 1-2], for which the IC50 is above 1 µM.

Consider `O=C(NC(Cc1ccc(Cl)cc1)C(=O)O)c1ccc2cc(OCc3ccccc3)ccc2c1` (centres unmarked) [Example 1-20], for which the IC50 is below 0.1 µM.

Take `O=C(NC(Cc1ccccc1)C(=O)O)c1ccc2cc(OCc3cccc(OC(F)(F)F)c3)ccc2c1` (centres unmarked) [Example 1-36]: the IC50 lay in the range of 0.1 to 1 µM.

`Cc1ccccc1COc1ccc2cc(C(=O)NC(Cc3ccccc3)C(=O)O)ccc2c1` (centres unmarked) [Example 1-54]: the IC50 was below 0.1 µM.

In the case of `O=C(NC(Cc1ccccc1)C(=O)O)c1ccc2cc(OCc3cccc(Cl)c3Cl)ccc2c1` (centres unmarked) [Example 1-33], the IC50 was below 0.1 µM.

Turning to `O=C(NC(Cc1ccc(F)cc1)C(=O)O)c1ccc2cc(OCc3ccccc3)ccc2c1` (centres unmarked) [Example 1-22], the IC50 was below 0.1 µM.

On to `O=C(NC(Cc1ccccc1)C(=O)O)c1ccc2cc(OCc3cc(Cl)cc(Cl)c3)ccc2c1` (centres unmarked) [Example 1-34], for which the IC50 was below 0.1 µM.

As for `O=C(NC(Cc1ccc(I)cc1)C(=O)O)c1ccc2cc(OCc3ccccc3)ccc2c1` (centres unmarked) [Example 1-71], the IC50 was below 0.1 µM.

As to `O=C(NC(Cc1ccccc1)C(=O)O)c1ccc2cc(OCc3cccc(O)c3)ccc2c1` (centres unmarked) [Example 1-85], the IC50 was below 0.1 µM.

As to `O=C(NC(Cc1ccc(C(F)(F)F)cc1)C(=O)O)c1ccc2cc(OCc3ccccc3)ccc2c1` (centres unmarked) [Example 1-3], the IC50 was below 0.1 µM.

With `O=C(NC(Cc1cccs1)C(=O)O)c1ccc2cc(OCc3ccccc3)ccc2c1` (centres unmarked) [Example 1-44], the IC50 is below 0.1 µM.

Turning to `COc1ccccc1COc1ccc2cc(C(=O)NC(Cc3ccccc3)C(=O)O)ccc2c1` (centres unmarked) [Example 1-29], the IC50 was below 0.1 µM.

As for `O=C(NC(Cc1ccccc1)C(=O)O)c1ccc2cc(OCCCn3cccc3)ccc2c1` (centres unmarked) [Example 1-63], the IC50 was 0.1 to 1 µM.

With `O=C(NC(Cc1ccccc1)C(=O)O)c1ccc2cc(OCCn3ccnc3)ccc2c1` (centres unmarked) [Example 1-86], the IC50 fell in the range of 0.1 to 1 µM.

For `O=C(NC(Cc1ccc(-c2ccncc2)cc1)C(=O)O)c1ccc2cc(OCc3ccccc3)ccc2c1` (centres unmarked) [Example 1-75], the IC50 was in the range of 0.1 to 1 µM.

Turning to `Nc1ccc(CC(NC(=O)c2ccc3cc(OCc4ccccc4)ccc3c2)C(=O)O)cc1` (centres unmarked) [Example 1-66], the IC50 was above 1 µM.

As to `COc1ccc(COc2ccc3cc(C(=O)NC(Cc4ccccc4)C(=O)O)ccc3c2)cc1` (centres unmarked) [Example 1-31], the IC50 is above 1 µM.

With `O=C(NC(Cc1ccccc1)C(=O)O)c1ccc2cc(OCc3ccc(F)cc3)ccc2c1` (centres unmarked) [Example 1-5], the IC50 was below 0.1 µM.

`O=C(NC(Cc1ccccc1)C(=O)O)c1ccc2cc(OCCc3ccccn3)ccc2c1` (centres unmarked) [Example 1-78]: the IC50 was in the range of 0.1 to 1 µM.

As for `CC(Oc1ccc2cc(C(=O)NC(Cc3ccccc3)C(=O)O)ccc2c1)c1ccccc1` (centres unmarked) [Example 1-60], the IC50 was in the range of 0.1 to 1 µM.

Consider `O=C(NC(Cc1ccccc1)C(=O)O)c1ccc2cc(OCc3cccc(OCC4CC4)c3)ccc2c1` (centres unmarked) [Example 1-89], for which the IC50 is 0.1 to 1 µM.

On to `Cc1ccc(COc2ccc3cc(C(=O)NC(Cc4ccccc4)C(=O)O)ccc3c2)cc1` (centres unmarked) [Example 1-56], for which the IC50 fell in the range of 0.1 to 1 µM.

`O=C(NC(Cc1cccc(O)c1)C(=O)O)c1ccc2cc(OCc3ccccc3)ccc2c1` (centres unmarked) [Example 1-47]: the IC50 was below 0.1 µM.

Consider `CC(C)COc1cccc(COc2ccc3cc(C(=O)NC(Cc4ccccc4)C(=O)O)ccc3c2)c1` (centres unmarked) [Example 1-93], for which the IC50 lay in the range of 0.1 to 1 µM.

Consider `O=C(NC(Cc1ccccc1C(F)(F)F)C(=O)O)c1ccc2cc(OCc3ccccc3)ccc2c1` (centres unmarked) [Example 1-13], for which the IC50 was in the range of 0.1 to 1 µM.

Consider `O=C(NC(C(=O)O)C(O)c1ccccc1)c1ccc2cc(OCc3ccccc3)ccc2c1` (centres unmarked) [Example 1-18], for which the IC50 is below 0.1 µM.

Regarding `O=C(NC(Cc1c[nH]c2ccccc12)C(=O)O)c1ccc2cc(OCc3ccccc3)ccc2c1` (centres unmarked) [Example 1-15], the IC50 was below 0.1 µM.

On to `COc1ccc(CC(NC(=O)c2ccc3cc(OCc4ccccc4)ccc3c2)C(=O)O)cc1` (centres unmarked) [Example 1-16], for which the IC50 was below 0.1 µM.

With `O=C(N[C@@H](Cc1ccccc1)C(=O)O)c1ccc2cc(OCc3ccccc3)ccc2c1` [Example 2-2, N-[6-(benzyloxy)-2-naphthoyl]-L-phenylalanine], the IC50 is above 1 µM.

As to `COc1cc(CC(NC(=O)c2ccc3cc(OCc4ccccc4)ccc3c2)C(=O)O)ccc1O` (centres unmarked) [Example 1-17], the IC50 is below 0.1 µM.

Test system in another data set: not given
Test: not given
Conditions: not given
For the molecule `O=C(NC(Cc1ccccc1)C(=O)O)c1ccc2cc(OCc3ccc[n+]([O-])c3)ccc2c1` (centres unmarked) [Example 1-87], the melting point is 252 °C (dec.).

The molecule `O=C(NC(Cc1ccccc1)C(=O)O)c1ccc2cc(OCc3ccc(Cl)cc3)ccc2c1` (centres unmarked) [Example 1-25] gave a melting point of 226 °C.

In the case of `Cc1ccc(C)c(COc2ccc3cc(C(=O)NC(Cc4ccccc4)C(=O)O)ccc3c2)c1` (centres unmarked) [Example 1-40], the melting point is 210 °C.

As for `O=C(NC(Cc1ccc(-c2ccccc2)cc1)C(=O)O)c1ccc2cc(OCc3ccccc3)ccc2c1` (centres unmarked) [Example 1-73], the melting point lay in the range of 250 to 252 °C.

For the molecule `O=C(N[C@@H](Cc1ccccc1)C(=O)O)c1ccc2cc(Oc3ccccc3)ccc2c1` [Example 3-1, N-(6-phenoxy-2-naphthoyl)phenylalanine], the melting point lay within 179 to 180 °C.

With `O=C(NC(Cc1c[nH]c2ccc(O)cc12)C(=O)O)c1ccc2cc(OCc3ccccc3)ccc2c1` (centres unmarked) [Example 1-49], the melting point is 261 to 262 °C (dec.).

With `O=C(NC(Cc1ccccc1)C(=O)O)c1ccc2cc(OCCOc3ccccc3)ccc2c1` (centres unmarked) [Example 1-4], the melting point was in the range of 225 to 227 °C.

`O=C(NC(Cc1ccccc1)C(=O)O)c1ccc2cc(OCc3ccccc3OC(F)(F)F)ccc2c1` (centres unmarked) [Example 1-37] gave a melting point of 158 °C.

The molecule `O=C(NC(CO)C(=O)O)c1ccc2cc(OCc3ccccc3)ccc2c1` (centres unmarked) [Example 1-2] gave a melting point of 196 to 198 °C.

As for `O=C(NC(Cc1ccc(Cl)cc1)C(=O)O)c1ccc2cc(OCc3ccccc3)ccc2c1` (centres unmarked) [Example 1-20], the melting point was 202 to 204 °C.

For the molecule `O=C(NC(Cc1ccccc1)C(=O)O)c1ccc2cc(OCc3cccc(OC(F)(F)F)c3)ccc2c1` (centres unmarked) [Example 1-36], the melting point is 157 °C.

As for `Cc1ccccc1COc1ccc2cc(C(=O)NC(Cc3ccccc3)C(=O)O)ccc2c1` (centres unmarked) [Example 1-54], the melting point turned out to be 204 °C.

Regarding `O=C(NC(Cc1ccccc1)C(=O)O)c1ccc2cc(OCc3cccc(Cl)c3Cl)ccc2c1` (centres unmarked) [Example 1-33], the melting point amounted to 211 °C.

With `O=C(NC(Cc1ccc(F)cc1)C(=O)O)c1ccc2cc(OCc3ccccc3)ccc2c1` (centres unmarked) [Example 1-22], the melting point lay in the range of 214 to 216 °C.

`O=C(NC(Cc1ccccc1)C(=O)O)c1ccc2cc(OCc3cc(Cl)cc(Cl)c3)ccc2c1` (centres unmarked) [Example 1-34] displayed a melting point of 180 °C.

`O=C(NC(Cc1ccc(I)cc1)C(=O)O)c1ccc2cc(OCc3ccccc3)ccc2c1` (centres unmarked) [Example 1-71] had a melting point of 219 to 221 °C.

Molecule `O=C(NC(Cc1ccccc1)C(=O)O)c1ccc2cc(OCc3cccc(O)c3)ccc2c1` (centres unmarked) [Example 1-85] returned a melting point of 157 °C.

Regarding `O=C(NC(Cc1ccc(C(F)(F)F)cc1)C(=O)O)c1ccc2cc(OCc3ccccc3)ccc2c1` (centres unmarked) [Example 1-3], the melting point was 212 to 214 °C (dec.).

Molecule `O=C(NC(Cc1cccs1)C(=O)O)c1ccc2cc(OCc3ccccc3)ccc2c1` (centres unmarked) [Example 1-44] yielded a melting point of 200 to 202 °C.

As to `COc1ccccc1COc1ccc2cc(C(=O)NC(Cc3ccccc3)C(=O)O)ccc2c1` (centres unmarked) [Example 1-29], the melting point was found to be 169 °C.

In the case of `O=C(NC(Cc1ccccc1)C(=O)O)c1ccc2cc(OCCCn3cccc3)ccc2c1` (centres unmarked) [Example 1-63], the melting point was 195 °C.

For `O=C(NC(Cc1ccccc1)C(=O)O)c1ccc2cc(OCCn3ccnc3)ccc2c1` (centres unmarked) [Example 1-86], the melting point is 172 °C (dec.).

For the molecule `O=C(NC(Cc1ccc(-c2ccncc2)cc1)C(=O)O)c1ccc2cc(OCc3ccccc3)ccc2c1` (centres unmarked) [Example 1-75], the melting point was 247 to 249 °C (dec.).

Take `Nc1ccc(CC(NC(=O)c2ccc3cc(OCc4ccccc4)ccc3c2)C(=O)O)cc1` (centres unmarked) [Example 1-66]: the melting point is 238 to 240 °C.

`COc1ccc(COc2ccc3cc(C(=O)NC(Cc4ccccc4)C(=O)O)ccc3c2)cc1` (centres unmarked) [Example 1-31] yielded a melting point of 188 °C.

Molecule `O=C(NC(Cc1ccccc1)C(=O)O)c1ccc2cc(OCc3ccc(F)cc3)ccc2c1` (centres unmarked) [Example 1-5] displayed a melting point of 197 °C.

`O=C(NC(Cc1ccccc1)C(=O)O)c1ccc2cc(OCCc3ccccn3)ccc2c1` (centres unmarked) [Example 1-78]: the melting point amounted to 143 °C.

In the case of `CC(Oc1ccc2cc(C(=O)NC(Cc3ccccc3)C(=O)O)ccc2c1)c1ccccc1` (centres unmarked) [Example 1-60], the melting point was 170 to 172 °C.

For the molecule `O=C(NC(Cc1ccccc1)C(=O)O)c1ccc2cc(OCc3cccc(OCC4CC4)c3)ccc2c1` (centres unmarked) [Example 1-89], the melting point came out at 179 °C.

For the molecule `Cc1ccc(COc2ccc3cc(C(=O)NC(Cc4ccccc4)C(=O)O)ccc3c2)cc1` (centres unmarked) [Example 1-56], the melting point turned out to be 212 °C.

With `O=C(NC(Cc1cccc(O)c1)C(=O)O)c1ccc2cc(OCc3ccccc3)ccc2c1` (centres unmarked) [Example 1-47], the melting point is 214 °C.

With `CC(C)COc1cccc(COc2ccc3cc(C(=O)NC(Cc4ccccc4)C(=O)O)ccc3c2)c1` (centres unmarked) [Example 1-93], the melting point came to 140 °C.
